Measurements reported in ChEMBL document CHEMBL5096204 (J Med Chem, 2021).

What was measured:
[1] = Lipophilicity, logD of the compound in octanol/buffer at pH 7.4 by shake flask method; format: physicochemical
[2] = Dissociation constant, pKa of the compound; format: physicochemical
[3] = Volume of distribution in Han-wistar rat at […], iv; format: ADME; settings: in vivo, dose 1.5 µmol/kg
[4] = Volume of distribution in SCID mouse at 5 umol/kg, iv; format: ADME; settings: in vivo, dose 5 µmol/kg
[5] = Drug metabolism in SCID mouse plasma assessed as 1-Isopropyl-5-(2-(piperidin-4-yl)-1H-pyrrolo[2,3-b]pyridin-4-yl)-pyridin-2(1H)-one metabolite formation at 0.5 mg/kg, iv administered as cassette dose; format: ADME, organism-based; settings: in vivo
[6] = Apparent permeability of compound from apical to basolateral side in human Caco-2 cells; format: ADME, cell-based

Row | Compound | logD [1] | pKa [2] | Vd [3] [L/kg] | further results
1 | CN(C)C(=O)CN1CCC(c2cc3c(-c4ccc(=O)n(CCC5CCOCC5)c4)ccnc3[nH]2)CC1 | 1.5 |  |  | 
2 | CC(C)n1nc(-c2ccnc3[nH]c(C4CCN(CC(=O)N(C)C)CC4)cc23)ccc1=O | 2 | 7.6 | 2.9 | 
3 | CC(C)n1cc(-c2ccnc3[nH]c(C4CCN(CC(=O)N(C)C)CC4)cc23)ccc1=O |  | 7.9 | 5.9 | 
4 | CCn1cc(-c2ccnc3[nH]c(C4CCN(CC(=O)N(C)C)CC4)cc23)ccc1=O | 1.2 |  |  | 
5 | CC(C)n1cc(-c2ccnc3[nH]c(C4CCN(CC(=O)N5CCCC5)CC4)cc23)ccc1=O |  | 7.8 | 3.9 | Vd [4]: 1.2 L/kg; Drug metabolism [5]: Metabolite_Notdetected
6 | COCCn1cc(-c2ccnc3[nH]c(C4CCN(CC(=O)N(C)C)CC4)cc23)ccc1=O | 1.1 |  |  | 
7 | CN(C)C(=O)CN1CCC(c2cc3c(-c4ccc(=O)n(C)c4)ccnc3[nH]2)CC1 | 1.1 |  |  | 
8 | CNC(=O)CN1CCC(c2cc3c(-c4ccc(=O)n(C(C)C)c4)ccnc3[nH]2)CC1 | 2.2 | 6.9 | 2.6 | 
9 | CSCCn1cc(-c2ccnc3[nH]c(C4CCN(CC(=O)N(C)C)CC4)cc23)ccc1=O | 1.7 |  |  | 
10 | CN(C)C(=O)CN1CCC(c2cc3c(-c4ccc(=O)n(CC5CCOCC5)c4)ccnc3[nH]2)CC1 | 1.4 |  |  | 
11 | CC(=O)N1CCC(c2cc3c(-c4ccc(=O)n(C(C)C)c4)ccnc3[nH]2)CC1 | 2.1 |  |  | 
12 | COc1cc(F)ccc1-c1ccnc2[nH]c(-c3ccc(CN4CCOCC4)cc3)cc12 | 4.4 |  |  | 
13 | CC(C)n1cc(-c2ccnc3[nH]c(C4CCN(CC(F)F)CC4)cc23)ccc1=O | 2.9 | 6 | 1.8 | 
14 | O=C(c1ccc(-c2ccnc3[nH]c(-c4ccc(CN5CCOCC5)cc4)nc23)cc1)N1CCCC1 | 3.2 |  |  | 
15 | CN(C)C(=O)CN1CCC(c2cc3c(-c4ccc(=O)n(C5CCC5)c4)ccnc3[nH]2)CC1 | 1.9 |  |  | 
16 | CC(C)n1cc(-c2ccnc3[nH]c(C4CCNCC4)cc23)ccc1=O | -0.2 |  |  | 
17 | CC(C)n1cc(-c2ccnc3[nH]c(C4CCN(CC(=O)N(C)C)CC4)cc23)cnc1=O | 0.4 |  | 2.9 | 
18 | CC(C)n1cc(-c2ccnc3[nH]c(C4CCN(Cc5cccs5)CC4)cc23)ccc1=O | 3.4 | 6.5 | 1.6 | 
19 | CN(C)C(=O)CN1CCC(c2cc3c(-c4ccc(=O)n(C5CCOCC5)c4)ccnc3[nH]2)CC1 | 1.1 |  |  | 
20 | CC(C)n1cc(-c2ccnc3[nH]c(C4CCN(CC(=O)N5CCCCC5)CC4)cc23)ccc1=O |  | 7.8 | 8.1 | Vd [4]: 1.5 L/kg; Drug metabolism [5]: Metabolite_Notdetected
21 | COc1cc(C(=O)N2CCCC2)ccc1-c1ccnc2[nH]c(-c3ccc(CN4CCOCC4)cc3)nc12 | 2.6 |  |  | 
22 | Cc1nc2ccc(-c3ccnc4[nH]c(C5CCN(CC(=O)N(C)C)CC5)cc34)cc2n1C(C)C | 3.1 |  |  | 
23 | COc1cc(=O)n(C)cc1-c1ccnc2[nH]c(C3CCN(CC(=O)N(C)C)CC3)cc12 | 0.7 |  |  | 
24 | CC(C)Cn1cc(-c2ccnc3[nH]c(C4CCN(CC(=O)N(C)C)CC4)cc23)ccc1=O | 2 |  |  | 
25 | COc1cc(C(=O)N2CCCC2)ccc1-c1ccnc2[nH]c(C3CCN(CCO)CC3)cc12 | 1.3 |  |  | 

Continued, in another order:

Row | logD [1] | pKa [2] | Vd [3] [L/kg] | Compound | further results
26 | 0 |  |  | COc1cc(F)ccc1-c1ccnc2[nH]c(C3CCNCC3)nc12 | 
27 | 3.8 |  | 2.5 | COc1cc(F)ccc1-c1ccnc2[nH]c([C@H]3CC[C@H](NC(C)=O)CC3)cc12 | 
28 | 2.4 | 8.5 | 12 | COc1cc(F)ccc1-c1ccnc2[nH]c(C3CCN(CCO)CC3)cc12 | 
29 | 3.4 |  | 1.7 | COc1cc(F)ccc1-c1ccnc2[nH]c(C3CCN(C(C)=O)CC3)cc12 | 
30 |  | 10.2 | 5.8 | COc1cc(C(=O)N2CCCC2)ccc1-c1ccnc2[nH]c(C3CCNCC3)cc12 | Papp A→B [6]: < 0.01 ×10⁻⁶ cm/s
31 | 3.7 |  |  | COc1cc(F)ccc1-c1ccnc2[nH]c(-c3ccc(CN4CCOCC4)cc3)nc12 | 
32 | 2.5 |  | 0.9 | COc1cc(C(=O)N2CCCC2)ccc1-c1ccnc2[nH]c(C3CCN(C(C)=O)CC3)cc12 | 
33 | 2.3 |  |  | COc1cc(F)ccc1-c1ccnc2[nH]c(C3CCC(NC(C)=O)C3)nc12 (centres undefined) | 
34 | 3 |  | 0.8 | COc1cc(C(=O)N2CCCC2)ccc1-c1ccnc2[nH]c(C3CCOCC3)cc12 | 
35 | 1.2 | 10.2 | 10 | COc1cc(F)ccc1-c1ccnc2[nH]c(C3CCNCC3)cc12 | Vd [4]: 14 L/kg
36 | 2.6 | 9 | 5.2 | COc1cc(F)ccc1-c1ccnc2[nH]c(C3CCN(C)CC3)cc12 | 
37 | 2.9 | 8 | 2.3 | COc1cc(F)ccc1-c1ccnc2[nH]c(C3CCN(CC(=O)N(C)C)CC3)cc12 | 
38 | 3.9 |  |  | COc1cc(F)ccc1-c1ccnc2[nH]c(C3CCOCC3)cc12 | 
